In ChEMBL document CHEMBL5131517 (ACS Med Chem Lett, 2022):

Tests used:
[1] = biological target: T1, 5-hydroxytryptamine receptor 2B (Homo sapiens, UniProt P41595); experiment: Agonist activity at human 5HT2B receptor stably expressed in Flp-In-T-REx-293 cells assessed as increase in Gq-mediated calcium flux by Fluo-4 direct dye based FLIPR Tetra assay; assay type: functional, cell-based; settings: read-out: EC50
[2] = biological target: T2, 5-hydroxytryptamine receptor 2C (Homo sapiens) (UniProt P28335); experiment: Agonist activity at human 5HT2C receptor stably expressed in Flp-In-T-REx-293 cells assessed as maximal Gq-mediated calcium flux by Fluo-4 direct dye based FLIPR Tetra assay relative to control; assay type: functional, cell-based
T2 sequence (whole entry): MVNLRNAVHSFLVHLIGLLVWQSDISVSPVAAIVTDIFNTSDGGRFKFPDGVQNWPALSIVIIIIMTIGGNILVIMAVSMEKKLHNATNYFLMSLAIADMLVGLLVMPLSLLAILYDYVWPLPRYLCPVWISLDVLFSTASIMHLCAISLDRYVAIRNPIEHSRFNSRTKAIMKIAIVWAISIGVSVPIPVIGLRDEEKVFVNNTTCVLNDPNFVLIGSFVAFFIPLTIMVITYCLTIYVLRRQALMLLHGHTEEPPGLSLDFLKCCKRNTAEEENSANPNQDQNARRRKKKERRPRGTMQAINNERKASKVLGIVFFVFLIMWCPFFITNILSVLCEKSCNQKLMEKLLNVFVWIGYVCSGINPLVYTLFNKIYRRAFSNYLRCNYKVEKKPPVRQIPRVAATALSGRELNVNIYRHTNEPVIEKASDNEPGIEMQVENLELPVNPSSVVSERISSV

[3] = biological target: T3, 5-hydroxytryptamine receptor 2A (Homo sapiens, UniProt P28223); experiment: Agonist activity at human 5HT2A receptor stably expressed in Flp-In-T-REx-293 cells assessed as maximal Gq-mediated calcium flux by Fluo-4 direct dye based FLIPR Tetra assay relative to control; assay type: functional, cell-based
T3 sequence (P28223 whole entry): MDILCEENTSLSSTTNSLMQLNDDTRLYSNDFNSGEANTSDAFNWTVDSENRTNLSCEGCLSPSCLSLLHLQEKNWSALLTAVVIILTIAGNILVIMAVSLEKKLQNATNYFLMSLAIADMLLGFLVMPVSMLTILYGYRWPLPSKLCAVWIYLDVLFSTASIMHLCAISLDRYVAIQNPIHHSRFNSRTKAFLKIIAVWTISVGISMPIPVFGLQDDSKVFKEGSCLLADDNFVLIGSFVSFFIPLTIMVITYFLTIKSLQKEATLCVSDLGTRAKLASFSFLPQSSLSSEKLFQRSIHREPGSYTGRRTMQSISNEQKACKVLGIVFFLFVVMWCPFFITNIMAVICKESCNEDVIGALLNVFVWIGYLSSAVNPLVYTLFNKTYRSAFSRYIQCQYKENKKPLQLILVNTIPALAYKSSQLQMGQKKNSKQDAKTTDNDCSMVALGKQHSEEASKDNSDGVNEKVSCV

[4] = biological target: T1, 5-hydroxytryptamine receptor 2B; experiment: Agonist activity at human 5HT2B receptor stably expressed in Flp-In-T-REx-293 cells assessed as maximal Gq-mediated calcium flux by Fluo-4 direct dye based FLIPR Tetra assay relative to control; assay type: functional, cell-based
[5] = biological target: T4, 5-hydroxytryptamine receptor 2C (Homo sapiens, UniProt P28335); experiment: Agonist activity at human 5HT2C receptor stably expressed in Flp-In-T-REx-293 cells assessed as increase in Gq-mediated calcium flux by Fluo-4 direct dye based FLIPR Tetra assay; assay type: functional, cell-based; settings: read-out: EC50
T4 sequence (P28335 whole entry): T2 sequence (whole entry)

[6] = biological target: T3, 5-hydroxytryptamine receptor 2A; experiment: Agonist activity at human 5HT2A receptor stably expressed in Flp-In-T-REx-293 cells assessed as increase in Gq-mediated calcium flux by Fluo-4 direct dye based FLIPR Tetra assay; assay type: functional, cell-based
[7] = Drug metabolism in BALB/c mouse liver microsome S9 fraction assessed as [M+16] metabolite formation prewarmed for 5 mins followed by NADPH addition measured over 1 hrs by LCMS analysis; assay type: ADME; settings: microsomes, 1.083 h, time 65 min

T1 sequence (P41595 whole entry): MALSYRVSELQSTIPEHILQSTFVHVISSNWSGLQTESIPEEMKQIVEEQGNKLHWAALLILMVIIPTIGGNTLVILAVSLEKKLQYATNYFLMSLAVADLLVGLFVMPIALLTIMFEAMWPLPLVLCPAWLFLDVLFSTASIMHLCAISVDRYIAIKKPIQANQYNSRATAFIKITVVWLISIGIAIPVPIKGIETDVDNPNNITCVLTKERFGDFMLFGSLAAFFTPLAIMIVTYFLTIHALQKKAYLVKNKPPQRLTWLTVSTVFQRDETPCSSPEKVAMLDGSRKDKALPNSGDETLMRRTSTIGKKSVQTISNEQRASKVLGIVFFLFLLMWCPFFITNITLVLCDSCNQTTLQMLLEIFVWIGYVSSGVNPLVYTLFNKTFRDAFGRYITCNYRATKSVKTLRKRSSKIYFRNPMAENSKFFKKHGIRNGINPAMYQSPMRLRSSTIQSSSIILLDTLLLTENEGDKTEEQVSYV

Compound | EC50 [1] [nM] | Emax ([2]; filed as agonist) [%] | Emax ([3]; filed as agonist) [%] | Emax ([4]; filed as agonist) [%] | EC50 [5] [nM] | EC50 [6] [nM] | Emax [3] [%] | Drug metabolism [7] | Emax [4] [%] | Emax [2] [%]
COc1ccc(C2NCCc3c2[nH]c2ccc(F)cc32)cc1OC (stereo unspecified) | 102 | 103 | 83.2 | 89.8 | 152 | 254 | – | – | – | –
Oc1cc(Cl)ccc1C1NCCc2c1[nH]c1ccc(F)cc21 (stereo unspecified) | 128 | 107 | 73.2 | 105 | 209 | 229 | – | – | – | –
COc1ccc(C2NCCc3c2[nH]c2ccc(F)cc32)c(OC)c1 (stereo unspecified) | 98 | 100 | 45.6 | 91.3 | 159 | 167 | – | – | – | –
Oc1ccc(Br)cc1C1NCCc2c1[nH]c1ccc(Cl)cc21 (stereo unspecified) | 457 | 95.2 | 79.7 | 111 | 1320 | 812 | – | – | – | –
Oc1c(Cl)cccc1C1NCCc2c1[nH]c1ccc(F)cc21 (stereo unspecified) | 88 | 99.2 | 65.3 | 96.2 | 78 | 273 | – | – | – | –
Cc1ccc(O)c(C2NCCc3c2[nH]c2ccc(F)cc32)c1 (stereo unspecified) | 316 | 99.2 | – | 115 | 446 | 1230 | 36.8 | – | – | –
Cc1ccc(C2NCCc3c2[nH]c2ccc(Cl)cc32)c(C)c1 (stereo unspecified) | 977 | 99.2 | 69.8 | 89.4 | 407 | 562 | – | – | – | –
COc1ccc(C2NCCc3c2[nH]c2ccc(Cl)cc32)cc1OC (stereo unspecified) | 34 | 99.3 | 96 | 102 | 123 | 81 | – | – | – | –
RAUWOLFIA SERPENTINA | – | – | – | – | – | – | – | Metabolite_Detected | – | –
Oc1ccc(O)c(C2NCCc3c2[nH]c2ccc(F)cc32)c1 (stereo unspecified) | 25 | 120 | 95.2 | 102 | 42 | 72 | – | – | – | –
Oc1cc(Br)ccc1C1NCCc2c1[nH]c1ccc(F)cc21 (stereo unspecified) | 59 | 111 | 98 | 112 | 95 | 147 | – | – | – | –
Oc1ccc2[nH]c3c(c2c1)CCNC3c1cc(F)ccc1O (stereo unspecified) | – | 101 | 88.4 | – | 77 | 216 | – | – | – | –
Cc1noc(C)c1C1NCCc2c1[nH]c1ccc(F)cc21 (stereo unspecified) | – | 111 | 90.7 | – | 50.1 | 239 | – | – | – | –
Cc1ccc(C2NCCc3c2[nH]c2ccc(F)cc32)cc1 (stereo unspecified) | – | 85.4 | – | – | 2060 | 208 | 39.9 | – | – | –
Clc1ccc2[nH]c3c(c2c1)CCNC3C1CCCCC1 (stereo unspecified) | – | 98.5 | 59.9 | – | 95.5 | 295 | – | – | – | –
Cc1ccc(C2NCCc3c2[nH]c2ccc(F)cc32)c(C)c1 (stereo unspecified) | 537 | 104 | 47.8 | 107 | 159 | 363 | – | – | – | –
Oc1cccc(C2NCCc3c2[nH]c2ccc(F)cc32)c1 (stereo unspecified) | – | 123 | 83.2 | – | 130 | 208 | – | – | – | –
Oc1ccc2[nH]c3c(c2c1)CCNC3c1cccs1 (stereo unspecified) | – | 97 | 44.7 | – | 294 | 346 | – | – | – | –
COc1ccc(OC)c(C2NCCc3c2[nH]c2ccc(Cl)cc32)c1 (stereo unspecified) | 416 | 42.4 | – | – | 2690 | 1820 | 14.4 | – | 32 | –

Compound | EC50 [1] [nM] | Emax ([2]; filed as agonist) [%] | Emax ([3]; filed as agonist) [%] | Emax ([4]; filed as agonist) [%] | EC50 [5] [nM] | EC50 [6] [nM] | Emax [3] [%] | Drug metabolism [7] | Emax [4] [%] | Emax [2] [%]
Clc1ccc2[nH]c3c(c2c1)CCNC3c1ccccc1 (stereo unspecified) | – | 98 | 83.9 | – | 68.9 | 248 | – | – | – | –
Oc1cccc(C2NCCc3c2[nH]c2ccc(Cl)cc32)c1 (stereo unspecified) | – | 67.4 | 49.1 | – | 688 | 3300 | – | – | – | –
Clc1ccc2[nH]c3c(c2c1)CCNC3c1ccc(Br)s1 (stereo unspecified) | – | 104 | 62.4 | – | 447 | 912 | – | – | – | –
Oc1c(Br)cccc1C1NCCc2c1[nH]c1ccc(F)cc21 (stereo unspecified) | – | 109 | 93.1 | – | 66.5 | 116 | – | – | – | –
Oc1ccc(Cl)cc1C1NCCc2c1[nH]c1ccc(Cl)cc21 (stereo unspecified) | 2000 | 58.9 | – | 111 | 3560 | > 10000 | – | – | – | –
Oc1ccc(Br)cc1C1NCCc2c1[nH]c1ccc(F)cc21 (stereo unspecified) | 338 | 101 | 80.8 | 111 | 376 | 1110 | – | – | – | –
Clc1ccc2[nH]c3c(c2c1)CCNC3c1cc2ccccc2s1 (stereo unspecified) | – | 105 | 88 | – | 39 | 151 | – | – | – | –
Oc1c(Cl)cccc1C1NCCc2c1[nH]c1ccc(Cl)cc21 (stereo unspecified) | 106 | 94 | 70.1 | 95.9 | 176 | 336 | – | – | – | –
Oc1cc(Cl)ccc1C1NCCc2c1[nH]c1ccc(Cl)cc21 (stereo unspecified) | 25 | 102 | 98.5 | 109 | 47 | 52 | – | – | – | –
COc1ccc(OC)c(C2NCCc3c2[nH]c2ccc(F)cc32)c1 (stereo unspecified) | 588 | 55.3 | – | 52.1 | 1600 | > 10000 | – | – | – | –
Oc1ccc2[nH]c3c(c2c1)CCNC3c1cc(Cl)ccc1O (stereo unspecified) | – | 97.1 | 47.6 | – | 754 | 1570 | – | – | – | –
Cc1ccc(O)c(C2NCCc3c2[nH]c2ccc(Cl)cc32)c1 (stereo unspecified) | 4270 | – | – | 106 | – | – | – | – | – | –
Oc1ccccc1C1NCCc2c1[nH]c1ccc(F)cc21 (stereo unspecified) | – | 100 | 96.2 | – | 4.3 | 26 | – | – | – | –
CCC1NCCc2c1[nH]c1ccc(F)cc21 (stereo unspecified) | – | 96.2 | 75.4 | – | 200 | 597 | – | – | – | –
COc1ccccc1C1NCCc2c1[nH]c1ccc(Cl)cc21 (stereo unspecified) | – | 82.9 | 41.6 | – | 284 | 207 | – | – | – | –
Oc1ccc2[nH]c3c(c2c1)CCNC3c1ccccc1C(F)(F)F (stereo unspecified) | – | 100 | 100 | – | 76.4 | 120 | – | – | – | –
Cc1cccc(C2NCCc3c2[nH]c2ccc(F)cc32)c1 (stereo unspecified) | – | 114 | – | – | 306 | 160 | 39.9 | – | – | –
Oc1cc(Br)ccc1C1NCCc2c1[nH]c1ccc(Cl)cc21 (stereo unspecified) | 204 | 107 | 94.5 | 106 | 794 | 537 | – | – | – | –
Fc1ccc2[nH]c3c(c2c1)CCNC3c1cccnc1F (stereo unspecified) | – | – | 40.9 | – | 4030 | 390 | – | – | – | 30.2
